Results reported in ChEMBL document CHEMBL1914347, “Palmerolide macrolides from the Antarctic tunicate Synoicum adareanum” (Bioorg Med Chem, 2011).

What was measured:
[1] = Ratio of IC50 for bovine brain Vo domain of V-ATPase activity to IC50 for human UACC62 cells; design: species or system UACC-62
[2] = Inhibition of bovine brain Vo domain of V-ATPase activity assessed as ATP-mediated proton translocation by spectrophotometric analysis; design: species or system Bos taurus
[3] = system: UACC-62; experiment: Cytotoxicity against human UACC62 cells after 48 hrs by SRB assay; type: functional, cell-based; conditions: UACC-62, 48 h
[4] = Cytotoxicity against human NCI60 cells; type: functional; conditions: read-out: LC50 (the source's name)

Compound	Ratio IC50 [1]	IC50 [2] [µM]	IC50 [3] [µM]	CC50 [4] [µM]
C/C(C=O)=C\[C@@H](C)[C@H]1C/C(C)=C/C=C/CC[C@H](OC(N)=O)[C@@H](O)/C=C/[C@@H](O)CCC/C=C/C(=O)O1 [PALMEROLIDE E]	>2	> 10000	5000	
CC(C)=CC(=O)N/C=C/C(C)=C/[C@@H](C)[C@H]1C/C(C)=C/C=C/CC[C@H](OC(N)=O)[C@@H](O)/C=C/[C@@H](O)CCC/C=C/C(=O)O1 [PALMEROLIDE A]	0.083	0.002	0.024	0.018
C=C(C)C/C(C)=C\C(=O)N/C=C/C(C)=C/[C@@H](C)[C@H]1C/C(C)=C/C=C/CC[C@H](OC(N)=O)[C@@H](O)/C=C/[C@@H](O)CCC/C=C/C(=O)O1 [PALMEROLIDE D]	12.5	0.025	0.002	
C=C(C)CC(=O)N/C=C/C(C)=C/[C@@H](C)[C@H]1C/C(C)=C/C=C/CC[C@H](OC(N)=O)[C@@H](O)/C=C/[C@@H](O)CCC/C=C/C(=O)O1 [PALMEROLIDE F]	0.083	0.063	0.758	
CC(C)=CC(=O)N/C=C/C(C)=C\[C@@H](C)[C@H]1C/C(C)=C/C=C/CC[C@H](OC(N)=O)[C@@H](O)/C=C/[C@@H](O)CCC/C=C/C(=O)O1 [PALMEROLIDE G]	0.006	0.007	1.21	
